Laboratory results taken from patent publication US8802053B2 (Brookhaven Science Associates, LLC, priority 2009, dated 2014).

Columns and labels:
[1] = Plasma analysis for fraction of 11C-isomers (unchanged parent tracer by HPLC); type: in vivo; details: baboon plasma
Description: Plasma analysis for fraction of ^11C-isomers: Plasma samples at 1, 5, 10, 30 and 60 min were analyzed by HPLC to determine the percent of residual parent tracer. Plasma samples from selected time points were added to 300 μL acetonitrile containing an appropriate amount of standard, then subjected to cell disruption using a Polytron (Brinkmann Instruments), centrifuged for 4 minutes and decanted into 300 μL water. HPLC conditions were 60:40 0.1 M ammonium formate:acetonitrile, Waters μBondapak column (3.9×300 mm), flow 1.3 mL/min, UV detection at 254 nm. Supernatants were injected onto the column, reserving a measured amount to determine recovery of injected activity from the column. […] Five fractions were collected from each injection, 3 before the parent peak, the parent peak, and finally the tail of the parent peak. The percent unchanged tracer was determined by dividing the sum of the last 2 peaks by the sum of all HPLC fractions.

brain aromatase = assay: PET studies in baboons (brain imaging); type: in vivo, baboon
Description: PET Studies in Baboons: All animal studies were reviewed and approved by the Brookhaven Institutional Animal Care and Use Committee. […] Baboons were anesthetized with ketamine (10 mg/kg) and then intubated and ventilated with a mixture of isoflurane (Forane, 1-4%) and nitrous oxide (1500 mL/min) and oxygen (800 mL/min). Animals were transported to and from the PET facility in a temperature controlled transfer cage and a member of the staff attended them while they recovered from anesthesia. Catheters were inserted in a popliteal artery and radial arm vein for arterial sampling a radiotracer injection respectively. Dynamic PET imaging was carried out on a Siemen's HR+ high resolution, whole body PET scanner (4.5×4.5×4.8 mm at center of field of view) in 3D acquisition mode, 63 planes. A transmission scan was obtained with a ^68Ge rotating rod source before the emission scan to correct for attenuation before each radiotracer injection. […] Dynamic scanning was carried out for 90 minutes with the following time frames (1×10 sec; 12×5 sec; 1×20 sec; 1×30 sec; 8×60 sec; 4×300 sec; 8×450 sec). […] During the PET scan, baboons were monitored for heart rate, respiration rate, PO2 and temperature. Animals were allowed 4 weeks between studies to recover from anesthesia and blood sampling.
Image Analysis: Time frames were summed over the 90 minute experimental period. Regions of interest were placed over the amygdala, the preoptic area, frontal cortex, cerebellum and thalamus on the summed image and then projected onto the dynamic images to obtain time activity curves. Regions occurring bilaterally were averaged. Carbon-11 concentration in each region of interest was divided by the injected dose to obtain the % dose/cc. The summed PET images from one baboon was co-registered with a 3D MR image of the same animal using PMOD (PMOD Technologies, Ltd.).

brain aromatase enzymes = details: Kil et al. (2008); cited from earlier work

With `[11CH3]n1nc2ccc(C(c3ccc(Cl)cc3)n3cncn3)cc2n1` (stereo not drawn) [N-2 isomer] the “appearance of labeled metabolites in plasma” value [1] was “very rapid appearance of labeled metabolites”, the “disappearance of parent labeled compound from plasma” value [1] was “rapid rate of disappearance of the parent labeled compound from plasma” and the “distribution to aromatase-rich brain regions” value (brain aromatase; baboon brain) was “no specific distribution to aromatase-rich brain regions”. The “PET image uptake in amygdala and preoptic area” value (brain aromatase; baboon brain, images summed 15-90 min after injection, FIG. 3) was “no specific uptake in amygdala and preoptic area”.

For `N#Cc1ccc(C(c2ccc(C#N)cc2)n2cncn2)cc1` [[^11C]letrozole], the “blocking of uptake by pretreatment with unlabeled letrozole” value (brain aromatase enzymes) is listed as “failed to block uptake” and the “brain uptake and clearance” value (brain aromatase enzymes) is listed as “rapidly taken up in the brain and was then rapidly cleared”.

For `N#Cc1ccc(C(c2ccc(C#N)cc2)n2cncn2)cc1` [letrozole, reference compound], the “effect of pretreatment on [N-methyl-11C]vorozole accumulation in brain” value (brain aromatase; blocking dose 0.1 mg/kg, 5 min prior, baboon) was “reduced [N-methyl-^11C]vorozole accumulation in all brain regions examined”.
